# Laboratory results reported in PubChem BioAssay (NCI).
#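 In this assay, cells in 96-well plates receive the compound at five concentrations for 48 hours. Endpoints are linearly interpolated between the surrounding concentrations. Abbreviation: GI50, concentration required for 50% inhibition of growth. TGI: concentration producing complete growth inhibition.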
# Tests used:
# Test in all cases: NCI tumour cell line growth inhibition, 48 h
# 786-0 renal = test system: 786-0 renal
# A498 renal = test system: A498 renal
# A549 NSCLC = test system: A549 NSCLC
# ACHN renal = test system: ACHN renal
# CAKI-1 renal = test system: CAKI-1 renal
# CCRF-CEM leukemia = test system: CCRF-CEM leukemia
# COLO 205 colon = test system: COLO 205 colon
# DU-145 prostate = test system: DU-145 prostate
# EKVX NSCLC = test system: EKVX NSCLC
# HCC-2998 colon = test system: HCC-2998 colon
# HCT-116 colon = test system: HCT-116 colon
# HCT-15 colon = test system: HCT-15 colon
# HL-60(TB) leukemia = test system: HL-60(TB) leukemia
# HOP-62 NSCLC = test system: HOP-62 NSCLC
# HOP-92 NSCLC = test system: HOP-92 NSCLC
# HS 578T breast = test system: HS 578T breast
# HT29 colon = test system: HT29 colon
# IGROV1 ovarian = test system: IGROV1 ovarian
# K-562 leukemia = test system: K-562 leukemia
# KM12 colon = test system: KM12 colon
# LOX IMVI melanoma = test system: LOX IMVI melanoma
# M14 melanoma = test system: M14 melanoma
# MALME-3M melanoma = test system: MALME-3M melanoma
# MCF7 breast = test system: MCF7 breast
# MDA-MB-231 breast = test system: MDA-MB-231 breast
# MDA-MB-435 = test system: MDA-MB-435
# MDA-N = test system: MDA-N
# MOLT-4 leukemia = test system: MOLT-4 leukemia
# NCI-H226 lung = test system: NCI-H226 lung
# NCI-H23 lung = test system: NCI-H23 lung
# NCI-H460 lung = test system: NCI-H460 lung
# NCI-H522 lung = test system: NCI-H522 lung
# NCI/ADR-RES ovarian = test system: NCI/ADR-RES ovarian
# OVCAR-3 ovarian = test system: OVCAR-3 ovarian
# OVCAR-4 ovarian = test system: OVCAR-4 ovarian
# OVCAR-5 ovarian = test system: OVCAR-5 ovarian
# OVCAR-8 ovarian = test system: OVCAR-8 ovarian
# PC-3 prostate = test system: PC-3 prostate
# RXF 393 renal = test system: RXF 393 renal
# SF-268 CNS = test system: SF-268 CNS
# SF-295 CNS = test system: SF-295 CNS
# SF-539 CNS = test system: SF-539 CNS
# SK-MEL-2 melanoma = test system: SK-MEL-2 melanoma
# SK-MEL-28 melanoma = test system: SK-MEL-28 melanoma
# SK-MEL-5 melanoma = test system: SK-MEL-5 melanoma
# SK-OV-3 ovarian = test system: SK-OV-3 ovarian
# SN12C renal = test system: SN12C renal
# SNB-19 CNS = test system: SNB-19 CNS
# SNB-75 CNS = test system: SNB-75 CNS
# SR leukemia = test system: SR leukemia
# SW-620 colon = test system: SW-620 colon
# T-47D breast = test system: T-47D breast
# TK-10 renal = test system: TK-10 renal
# U251 CNS = test system: U251 CNS
# UACC-257 melanoma = test system: UACC-257 melanoma
# UACC-62 melanoma = test system: UACC-62 melanoma
structure (smiles),measurement,setting,value
CC1(C)CC(=O)C2=C(C1)OC(N)=C(c1nc(-c3ccccc3)cs1)C2c1ccc(Br)cc1 (configuration not stated),GI50,786-0 renal,100 µg/mL
same,TGI,786-0 renal,> 150 µg/mL
same,GI50,A498 renal,66.6 µg/mL
same,TGI,A498 renal,> 150 µg/mL
same,GI50,A549 NSCLC,53.1 µg/mL
same,TGI,A549 NSCLC,> 150 µg/mL
same,GI50,ACHN renal,61.5 µg/mL
same,TGI,ACHN renal,> 150 µg/mL
same,GI50,CAKI-1 renal,> 150 µg/mL
same,TGI,CAKI-1 renal,> 150 µg/mL
same,GI50,CCRF-CEM leukemia,58.6 µg/mL
same,TGI,CCRF-CEM leukemia,> 150 µg/mL
same,GI50,COLO 205 colon,41.8 µg/mL
same,TGI,COLO 205 colon,> 150 µg/mL
same,GI50,DU-145 prostate,70.9 µg/mL
same,TGI,DU-145 prostate,> 150 µg/mL
same,GI50,EKVX NSCLC,64.5 µg/mL
same,TGI,EKVX NSCLC,> 150 µg/mL
same,GI50,HCC-2998 colon,44.4 µg/mL
same,TGI,HCC-2998 colon,> 150 µg/mL
same,GI50,HCT-116 colon,55.7 µg/mL
same,TGI,HCT-116 colon,> 150 µg/mL
same,GI50,HCT-15 colon,36.1 µg/mL
same,TGI,HCT-15 colon,> 150 µg/mL
same,GI50,HL-60(TB) leukemia,69.2 µg/mL
same,TGI,HL-60(TB) leukemia,> 150 µg/mL
same,GI50,HOP-62 NSCLC,54.4 µg/mL
same,TGI,HOP-62 NSCLC,> 150 µg/mL
same,GI50,HOP-92 NSCLC,33.2 µg/mL
same,TGI,HOP-92 NSCLC,126 µg/mL
same,GI50,HS 578T breast,38.5 µg/mL
same,TGI,HS 578T breast,> 150 µg/mL
same,GI50,HT29 colon,67.4 µg/mL
same,TGI,HT29 colon,> 150 µg/mL
same,GI50,IGROV1 ovarian,90.9 µg/mL
same,TGI,IGROV1 ovarian,> 150 µg/mL
same,GI50,K-562 leukemia,68.8 µg/mL
same,TGI,K-562 leukemia,> 150 µg/mL
same,GI50,KM12 colon,87.6 µg/mL
same,TGI,KM12 colon,> 150 µg/mL
same,GI50,LOX IMVI melanoma,124 µg/mL
same,TGI,LOX IMVI melanoma,> 150 µg/mL
same,GI50,M14 melanoma,103 µg/mL
same,TGI,M14 melanoma,> 150 µg/mL
same,GI50,MALME-3M melanoma,> 150 µg/mL
same,TGI,MALME-3M melanoma,> 150 µg/mL
same,GI50,MCF7 breast,18.2 µg/mL
same,TGI,MCF7 breast,101 µg/mL
same,GI50,MDA-MB-231 breast,59.1 µg/mL
same,TGI,MDA-MB-231 breast,> 150 µg/mL
same,GI50,MDA-MB-435,92.6 µg/mL
same,TGI,MDA-MB-435,> 150 µg/mL
same,GI50,MDA-N,74.3 µg/mL
same,TGI,MDA-N,> 150 µg/mL
same,GI50,MOLT-4 leukemia,53.5 µg/mL
same,TGI,MOLT-4 leukemia,> 150 µg/mL
same,GI50,NCI-H226 lung,22.8 µg/mL
same,TGI,NCI-H226 lung,96.8 µg/mL
same,GI50,NCI-H23 lung,53.7 µg/mL
same,TGI,NCI-H23 lung,> 150 µg/mL
same,GI50,NCI-H460 lung,42.3 µg/mL
same,TGI,NCI-H460 lung,> 150 µg/mL
same,GI50,NCI-H522 lung,42.1 µg/mL
same,TGI,NCI-H522 lung,> 150 µg/mL
same,GI50,NCI/ADR-RES ovarian,106 µg/mL
same,TGI,NCI/ADR-RES ovarian,> 150 µg/mL
same,GI50,OVCAR-3 ovarian,59.7 µg/mL
same,TGI,OVCAR-3 ovarian,> 150 µg/mL
same,GI50,OVCAR-4 ovarian,20.9 µg/mL
same,TGI,OVCAR-4 ovarian,121 µg/mL
same,GI50,OVCAR-5 ovarian,> 150 µg/mL
same,TGI,OVCAR-5 ovarian,> 150 µg/mL
same,GI50,OVCAR-8 ovarian,116 µg/mL
same,TGI,OVCAR-8 ovarian,> 150 µg/mL
same,GI50,PC-3 prostate,50.9 µg/mL
same,TGI,PC-3 prostate,> 150 µg/mL
same,GI50,RXF 393 renal,42.5 µg/mL
same,TGI,RXF 393 renal,126 µg/mL
same,GI50,SF-268 CNS,121 µg/mL
same,TGI,SF-268 CNS,> 150 µg/mL
same,GI50,SF-295 CNS,142 µg/mL
same,TGI,SF-295 CNS,> 150 µg/mL
same,GI50,SF-539 CNS,94.8 µg/mL
same,TGI,SF-539 CNS,> 150 µg/mL
same,GI50,SK-MEL-2 melanoma,79 µg/mL
same,TGI,SK-MEL-2 melanoma,> 150 µg/mL
same,GI50,SK-MEL-28 melanoma,93.8 µg/mL
same,TGI,SK-MEL-28 melanoma,> 150 µg/mL
same,GI50,SK-MEL-5 melanoma,38.7 µg/mL
same,TGI,SK-MEL-5 melanoma,> 150 µg/mL
same,GI50,SK-OV-3 ovarian,102 µg/mL
same,TGI,SK-OV-3 ovarian,> 150 µg/mL
same,GI50,SN12C renal,51.8 µg/mL
same,TGI,SN12C renal,> 150 µg/mL
same,GI50,SNB-19 CNS,> 150 µg/mL
same,TGI,SNB-19 CNS,> 150 µg/mL
same,GI50,SNB-75 CNS,0.547 µg/mL
same,TGI,SNB-75 CNS,46.9 µg/mL
same,GI50,SR leukemia,112 µg/mL
same,TGI,SR leukemia,> 150 µg/mL
same,GI50,SW-620 colon,86 µg/mL
same,TGI,SW-620 colon,> 150 µg/mL
same,GI50,T-47D breast,44.6 µg/mL
same,TGI,T-47D breast,> 150 µg/mL
same,GI50,TK-10 renal,76.9 µg/mL
same,TGI,TK-10 renal,> 150 µg/mL
same,GI50,U251 CNS,71.2 µg/mL
same,TGI,U251 CNS,> 150 µg/mL
same,GI50,UACC-257 melanoma,97.1 µg/mL
same,TGI,UACC-257 melanoma,> 150 µg/mL
same,GI50,UACC-62 melanoma,30.5 µg/mL
same,TGI,UACC-62 melanoma,> 150 µg/mL
